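Results reflect a 48-hour exposure of cells in 96-well plates to compound at five concentrations. At the GI50, growth is halved. TGI denotes the concentration required for complete inhibition of growth.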
Assays:
Test in all cases: NCI-60 cell line screen, 48 h
[1] = system: CCRF-CEM leukemia
[2] = system: NCI/ADR-RES ovarian
[3] = system: MALME-3M melanoma
[4] = system: SF-268 CNS
[5] = system: ACHN renal
[6] = system: MOLT-4 leukemia
[7] = system: HS 578T breast
[8] = system: SK-MEL-5 melanoma
[9] = system: NCI-H522 lung
[10] = system: SK-MEL-2 melanoma
[11] = system: PC-3 prostate
[12] = system: CAKI-1 renal
[13] = system: SK-OV-3 ovarian
[14] = system: NCI-H226 lung
[15] = system: SF-539 CNS
[16] = system: SN12C renal
[17] = system: HCT-15 colon
[18] = system: SNB-75 CNS
[19] = system: HOP-92 NSCLC
[20] = system: KM12 colon
[21] = system: SR leukemia
[22] = system: SW-620 colon
[23] = system: OVCAR-8 ovarian
[24] = system: UO-31 renal
[25] = system: HCT-116 colon
[26] = system: A549 NSCLC
[27] = system: TK-10 renal
[28] = system: SNB-19 CNS
[29] = system: T-47D breast
[30] = system: M14 melanoma
[31] = system: BT-549 breast
[32] = system: U251 CNS
[33] = system: NCI-H23 lung
[34] = system: OVCAR-4 ovarian
[35] = system: MCF7 breast
[36] = system: OVCAR-5 ovarian
[37] = system: A498 renal
[38] = system: EKVX NSCLC
[39] = system: HT29 colon
[40] = system: K-562 leukemia
[41] = system: COLO 205 colon
[42] = system: MDA-MB-435
[43] = system: RPMI-8226 leukemia
[44] = system: SK-MEL-28 melanoma
[45] = system: UACC-62 melanoma
[46] = system: HOP-62 NSCLC
[47] = system: 786-0 renal
[48] = system: IGROV1 ovarian
[49] = system: DU-145 prostate
[50] = system: LOX IMVI melanoma
[51] = system: SF-295 CNS
[52] = system: HL-60(TB) leukemia
[53] = system: MDA-MB-231 breast
[54] = system: NCI-H460 lung
[55] = system: HCC-2998 colon
[56] = system: OVCAR-3 ovarian
[57] = system: RXF 393 renal

## COc1ccc(/C=C2\COc3ccc(-c4ccccc4)cc3C2=O)cc1O
[1]
  GI50: 2.03 µM
  TGI: > 100 µM
[2]
  GI50: 3.39 µM
  TGI: 14 µM
[3]
  GI50: 1.04 µM
  TGI: 4.31 µM
[4]
  GI50: 3.18 µM
  TGI: 12.7 µM
[5]
  GI50: 3.13 µM
  TGI: 13.1 µM
[6]
  GI50: 2.34 µM
  TGI: 83.6 µM
[7]
  GI50: 2.72 µM
  TGI: 7.56 µM
[8]
  GI50: 1.51 µM
  TGI: 3.68 µM
[9]
  GI50: 2.4 µM
  TGI: 10.5 µM
[10]
  GI50: 2.17 µM
  TGI: 6.1 µM
[11]
  GI50: 3.41 µM
  TGI: > 100 µM
[12]
  GI50: 4.61 µM
  TGI: 32.9 µM
[13]
  GI50: 4.16 µM
  TGI: 22.3 µM
[14]
  GI50: 15.3 µM
  TGI: 32.9 µM
[15]
  GI50: 2.45 µM
  TGI: 6.38 µM
[16]
  GI50: 3.78 µM
  TGI: 14.5 µM
[17]
  GI50: 1.69 µM
  TGI: 4.37 µM
[18]
  GI50: 2.71 µM
  TGI: 8.77 µM
[19]
  GI50: 2.55 µM
  TGI: 18.9 µM
[20]
  GI50: 1.75 µM
  TGI: 4.09 µM
[21]
  GI50: 2 µM
  TGI: > 100 µM
[22]
  GI50: 1.82 µM
  TGI: 3.72 µM
[23]
  GI50: 2.43 µM
  TGI: 6.56 µM
[24]
  GI50: 4.16 µM
  TGI: 16.1 µM
[25]
  GI50: 1.72 µM
  TGI: 3.53 µM
[26]
  GI50: 2.96 µM
  TGI: 18.9 µM
[27]
  GI50: 2.14 µM
  TGI: 8.3 µM
[28]
  GI50: 3.38 µM
  TGI: 17.2 µM
[29]
  GI50: 3.28 µM
  TGI: 30.2 µM
[30]
  GI50: 3.41 µM
  TGI: 14.6 µM
[31]
  GI50: 1.69 µM
  TGI: 5.57 µM
[32]
  GI50: 1.83 µM
  TGI: 4.27 µM
[33]
  GI50: 4.09 µM
  TGI: 16.6 µM
[34]
  GI50: 4.18 µM
  TGI: 30.8 µM
[35]
  GI50: 1.58 µM
  TGI: 13 µM
[36]
  GI50: 4.13 µM
  TGI: 14.7 µM
[37]
  GI50: 2.4 µM
  TGI: 6.1 µM
[38]
  GI50: 6.71 µM
  TGI: > 100 µM
[39]
  GI50: 1.46 µM
  TGI: 3.85 µM
[40]
  GI50: 3.6 µM
  TGI: > 100 µM
[41]
  GI50: 3.68 µM
  TGI: 21.9 µM
[42]
  GI50: 2.03 µM
  TGI: 15.9 µM
[43]
  GI50: 3.61 µM
  TGI: > 100 µM
[44]
  GI50: 1.88 µM
  TGI: 3.96 µM
[45]
  GI50: 3.59 µM
  TGI: 18.1 µM
[46]
  GI50: 5.83 µM
  TGI: 19.4 µM
[47]
  GI50: 5.02 µM
  TGI: 15.7 µM
[48]
  GI50: 4.37 µM
  TGI: 15.9 µM
[49]
  GI50: 2.49 µM
  TGI: 9.69 µM
[50]
  GI50: 1.85 µM
  TGI: 3.87 µM
[51]
  GI50: 4.4 µM
  TGI: 21.7 µM
[52]
  GI50: 2.29 µM
  TGI: > 100 µM
[53]
  GI50: 3.98 µM
  TGI: 20.2 µM
[54]
  GI50: 2.07 µM
  TGI: 5.8 µM
[55]
  GI50: 3.31 µM
  TGI: 10.3 µM
[56]
  GI50: 1.76 µM
  TGI: 4.97 µM

## COc1ccc(NC(=O)c2cc(OC)c(OC)c(OC)c2)cc1O
[1]
  GI50: 4.13 µM
  TGI: > 100 µM
[2]
  GI50: 1.13 µM
  TGI: > 100 µM
[3]
  GI50: 29.4 µM
  TGI: > 100 µM
[4]
  GI50: 5.43 µM
  TGI: > 100 µM
[5]
  GI50: 13.6 µM
  TGI: > 100 µM
[6]
  GI50: 3.42 µM
  TGI: > 100 µM
[8]
  GI50: 1.43 µM
  TGI: 48.6 µM
[10]
  GI50: 2.58 µM
  TGI: > 100 µM
[11]
  GI50: 2.52 µM
  TGI: > 100 µM
[13]
  GI50: 4.95 µM
  TGI: > 100 µM
[14]
  GI50: 13.8 µM
  TGI: > 100 µM
[15]
  GI50: 2.75 µM
  TGI: > 100 µM
[16]
  GI50: 7.99 µM
  TGI: > 100 µM
[17]
  GI50: 1.46 µM
  TGI: > 100 µM
[18]
  GI50: 1.56 µM
  TGI: > 100 µM
[19]
  GI50: 0.861 µM
  TGI: > 100 µM
[20]
  GI50: 0.792 µM
  TGI: > 100 µM
[57]
  GI50: 3.75 µM
  TGI: 83.9 µM
[21]
  GI50: 0.313 µM
  TGI: > 100 µM
[22]
  GI50: 1.11 µM
  TGI: > 100 µM
[23]
  GI50: 4.98 µM
  TGI: > 100 µM
[24]
  GI50: 18.1 µM
  TGI: > 100 µM
[25]
  GI50: 4.21 µM
  TGI: > 100 µM
[26]
  GI50: 4.59 µM
  TGI: > 100 µM
[27]
  GI50: > 100 µM
  TGI: > 100 µM
[28]
  GI50: 4.73 µM
  TGI: > 100 µM
[29]
  GI50: 9.89 µM
  TGI: > 100 µM
[30]
  GI50: 2.91 µM
  TGI: > 100 µM
[31]
  GI50: 21.7 µM
  TGI: > 100 µM
[32]
  GI50: 3.71 µM
  TGI: > 100 µM
[33]
  GI50: 5.32 µM
  TGI: > 100 µM
[34]
  GI50: 15.3 µM
  TGI: > 100 µM
[35]
  GI50: 2.58 µM
  TGI: > 100 µM
[36]
  GI50: 40.1 µM
  TGI: > 100 µM
[37]
  GI50: 2.73 µM
  TGI: 32.9 µM
[38]
  GI50: > 100 µM
  TGI: > 100 µM
[39]
  GI50: 3.21 µM
  TGI: 11.6 µM
[40]
  GI50: 0.489 µM
  TGI: > 100 µM
[41]
  GI50: 4.45 µM
  TGI: > 100 µM
[42]
  GI50: 0.241 µM
  TGI: 0.872 µM
[43]
  GI50: 5.93 µM
  TGI: > 100 µM
[44]
  GI50: 28.1 µM
  TGI: > 100 µM
[45]
  GI50: 2.66 µM
  TGI: > 100 µM
[46]
  GI50: 5.36 µM
  TGI: > 100 µM
[47]
  GI50: 45.7 µM
  TGI: > 100 µM
[48]
  GI50: 8.86 µM
  TGI: > 100 µM
[49]
  GI50: 3.96 µM
  TGI: > 100 µM
[50]
  GI50: 8.33 µM
  TGI: > 100 µM
[51]
  GI50: 2.78 µM
  TGI: > 100 µM
[52]
  GI50: 1.08 µM
  TGI: 21.6 µM
[53]
  GI50: 6.79 µM
  TGI: > 100 µM
[54]
  GI50: 3 µM
  TGI: > 100 µM
[55]
  GI50: 14.6 µM
  TGI: > 100 µM
